We go through 8 compounds from patent US8466172B2, “Stabilization of hypoxia inducible factor (HIF) alpha” (FibroGen, Inc., priority 2001, dated 2013).

SMILES strings stand for the structures.

Test [1] has as its system vascular endothelial growth factor (VEGF). As to the kind of experiment: VEGF expression in conditioned media, QUANTIKINE immunoassay. The settings on record: HFF, 293A and Hep3B cells. It is filed as cell-based, human. The protocol: When cell layers reached confluence, the media was replaced with OPTI-MEM media (Invitrogen Life Technologies, Carlsbad Calif.) and cell layers were incubated for approximately 24 hours in 20% O2, 5% CO2 at 37° C. Compound of the invention (one of compounds A to O) or DMSO (0.5 to 1%) was then added to existing medium, and incubation was continued overnight.
Conditioned media collected from cell cultures grown as in Example 1 was analyzed for vascular endothelial growth factor (VEGF) expression using a QUANTIKINE immunoassay (R&D Systems) according to the manufacturer's instructions. […] Values on the y-axis represent fold-induction relative to control and are reported on a log2 scale, such that a value of 1 represents 2-fold induction.

Test [2] deals with Wistar rats, myocardial infarction. Particulars: one week after surgery. The protocol: Male Wistar rats (100-110 g), aged 4-5 weeks, were kept on a regular diet and a 12 hour day-night cycle. […] Animals were treated for two days prior to surgery and for one week following surgery. […] Ligation of the left anterior descending coronary artery was performed in artificially ventilated animals after left thoracotomy. Animals were sacrificed one week after surgery and echocardiography was performed. Fractional shortening, end-diastolic diameters, and end-systolic diameters were determined in a blinded fashion.

The subject of test [3] is vascular endothelial growth factor (VEGF) gene expression. Nature of the test: VEGF gene expression in liver and kidney, quantitative PCR. It is filed as in vivo. Particulars: mouse, 200 mg/kg/day oral gavage, 2.5 days, four hours after final dose.
Procedure: Four hours after the final dose, animals were anesthetized with isoflurane and a blood sample was collected from the abdominal vein. […] The mice were then sacrificed and approximately 150 mg of liver and each kidney were isolated and stored in [sequence] solution (Ambion) at −20° C.
RNA isolation was carried out using the following protocol. Tissue slices were cut into small pieces, 1.75 ml of RLT lysis buffer (RNEASY kit; Qiagen) was added, and the pieces were homogenized for about 20 seconds using a rotor-stator POLYTRON homogenizer (Kinematica, Inc., Cincinnati Ohio). […] The RNA was eluted into 80 μL of water and quantitated with RIBOGREEN reagent (Molecular Probes, Eugene Oreg.). […] The absorbance at 260 and 280 nm was measured to determine RNA purity and concentration.
cDNA synthesis was performed using 1W random hexamer primers, 1 μg of total RNA, and OMNISCRIPT reverse transcriptase (Qiagen), according to the manufacturer's instructions. […] Analysis of the relative level of vascular endothelial growth factor (VEGF) gene expression was performed by quantitative PCR using a [sequence] […]
The relative level of 18S ribosomal RNA gene expression was measured as a control. Quantitative PCR was performed using a [sequence] […]
A further test concerns aldolase. Particulars: 293A cells.
For test [4], the system named is Wistar rats, toxic-ischemic liver injury. Particulars: CCl4 + CPD, 9 weeks, 60 mg/kg intraperitoneal twice daily; cited from earlier work.
The test system is the same in test [5]. As to the kind of experiment: Toxic-ischemic liver injury (CCl4). The settings on record: 9 weeks. It is filed as in vivo, rat. The protocol:
The model of toxic-ischemic liver injury was described in Bickel et al. (supra). Briefly, male Wistar rats (212-320 g) either received 1 ml/kg carbon tetrachloride (CCl4) in olive oil (1:1) by gavage twice weekly for nine weeks (n=140) or received no treatment (controls; n=10). Additionally, a group of animals receiving CCl4 (n=60) also received compound P. The compound was administered by intraperitoneal injection twice daily at 60 mg compound/2 ml saline/kg body weight. After 9 weeks, the animals were sacrificed and the liver was weighed. Bilirubin, alanine transaminase, alkaline phosphatase, albumin, and total bile acids in serum were determined using commercially available kits.

Procedure for aldolase: Alternatively, human cells derived from adenovirus-transformed fetal kidney epithelium (293A) were cultured in DMEM, 5% FBS, 1% Penicillin-Streptomycin at 37° C. and 10% CO2. […] Culture supernatant was then removed, the plates were placed on ice, lysis buffer (LB)-1 was added and the cells were harvested by scraping. The scraped cells were collected and incubated for 15 minutes on ice followed by centrifugation at 3000 g for 5 minutes at 4° C. The supernatant, which represents the cytosolic fraction, was collected and cytosolic proteins were separated under denaturing and reducing conditions using SDS polyacrylamide gels that were loaded with equal amounts of protein per lane.
Gel electrophoresis was conducted at 150 V for 2 hours, and after SDS-PAGE the proteins were transferred to a PVDF membrane for 1.5 hours at 400 mA at 4° C. The membrane was then incubated in blocking buffer, washed once with T-TBS, and then anti-aldolase antibody diluted to working concentration in blocking buffer was added and the blots were incubated over night with gentle agitation at 4° C. The membrane was then washed 4 times with T-TBS, followed by incubation for one hour at room temperature with blocking buffer containing labeled secondary antibody. The membrane was then washed four times with T-TBS. […]

Turning to `O=C(O)CNC(=O)c1nc(Cl)c2ccccc2c1O` [Compound B, N-((1-chloro-4-hydroxy-isoquinoline-3-carbonyl)-amino)-acetic acid], in test [1], the “VEGF expression in conditioned media (FIG. 4A)” value (from here on “VEGF expression … (FIG. 4A)”) is listed as “increase in VEGF expression”. Besides, in test [2], the “increase in end-diastolic diameter over sham operated animals” value is recorded as 18% and the “increase in left ventricular end-systolic diameter over sham operated animals” value is given as “no increase”. The “fractional shortening (FIG. 12A)” value in test [2] (50 mg/kg oral gavage two times per day from two days prior to surgery) came out at 41%. Further, the “VEGF expression in kidney (FIG. 6A)” value in test [3] is “increased VEGF expression”. For the same compound, the “expression of aldolase over time (FIG. 4B)” value with aldolase was “increased expression of aldolase”.
As to `COc1ccc(CCN(CCC(=O)NO)S(=O)(=O)c2ccc(NC(=O)N(Cc3ccccc3)Cc3ccccc3)cc2)cc1` [Compound C, 3-{[4-(3,3-dibenzyl-ureido)-benzenesulfonyl]-[2-(4-methoxy-phenyl)-ethyl]-amino}-N-hydroxy-propionamide], in test [1], the “VEGF expression … (FIG. 4A)” value is reported as “increase in VEGF expression”.
On to `O=[N+]([O-])c1ccnc2c(O)cccc12` [Compound E, 4-nitro-quinolin-8-ol], for which the “VEGF expression in kidney (FIG. 6A)” value in test [3] is recorded as “increased VEGF expression”.
Turning to `CC(C)Oc1ccc2nc(C(=O)NCC(=O)O)c(O)cc2c1` [Compound H, N-((3-hydroxy-6-isopropoxy-quinoline-2-carbonyl)-amino)-acetic acid], in test [1], the “VEGF expression … (FIG. 4A)” value is on record as “increase in VEGF expression”.
The same measure, in the same setting: the entry for `COC(=O)CNC(=O)c1nc(Cl)c2cc(OCc3ccccc3)ccc2c1O` [Compound K, ((7-benzyloxy-1-chloro-4-hydroxy-isoquinoline-3-carbonyl)-amino)-acetic acid methyl ester] is “increase in VEGF expression”; for `O=C(O)CNC(=O)c1nc(Cl)c2cc(OCc3ccccc3)ccc2c1O` [Compound L, N-((7-benzyloxy-1-chloro-4-hydroxy-isoquinoline-3-carbonyl)-amino)-acetic acid] it is “increase in VEGF expression”.
Consider `COc1cccnc1C(=O)NCC(=O)O` [Compound P, [(3-methoxy-pyridine-2-carbonyl)-amino]-acetic acid], for which, in test [4], the “ALT (serum alanine transaminase)” value is 59.0 ± 29.5 U/L, the “AP (serum alkaline phosphatase)” value is listed as 195 ± 72.7 U/L, the “BR (serum bilirubin)” value was 2.83 ± 2.21 µmol/L and the “BW (body weight)” value is reported as 373 ± 38.9 g. Further, the “tBA (serum total bile acids)” value in test [4] is 40.8 ± 51.4 µmol/L. Also, in test [5], the “decrease in serum level of ALT in the treated group relative to the untreated group” value was 43%, the “decrease in serum level of AP in the treated group relative to the untreated group” value is 65%, the “decrease in serum level of BR in the treated group relative to the untreated group” value worked out at 64% and the “decrease in serum level of tBA in the treated group relative to the untreated group” value was found to be 65%.
As for `COc1cc2cccnc2c2[nH]cc(C(=O)O)c(=O)c12` [Compound Q, 5-methoxy-4-oxo-1,4-dihydro-[1,10]phenanthroline-3-carboxylic acid], in test [1], the “VEGF expression … (FIG. 4A)” value is “increase in VEGF expression”.
